Results from EP3016671B1, “ACTIVELY T[…] PROTEASE-RESISTANT PEPTIDES AS BBB SHUTTLES AND SHUTTLE-CARGO CONSTRUCTS” (Universitat de Barcelona, priority 2013, dated 2015).
Positions of bridges follow the written chain, without caps; N, C: chain ends. Non-standard residues stand in square brackets, D forms with d. Residues, ends and D or L forms follow the SMILES beside them. Dopa = N[C@@H](Cc1ccc(O)c(O)c1)C(=O)O; Dap = NC[C@H](N)C(=O)O

Columns and labels:
[1] = Transport across the BBB, in vitro bovine cell assay (co-culture, transwell); details: bovine, pH 7.4
Description: (§1) The evaluation method chosen to test the compounds of formula (I) and (II) of the invention was a cell-based assay consisting of a co-culture of brain endothelial cells and astrocytes, which allows to evaluate or to predict the transport of compounds through the BBB. The co-culture method used was described by Gaillard and de Boer in 2008 (Gaillard, PJ et al. "2B-Trans technology: targeted drug delivery across the blood-brain barrier" Methods Mol Biol 2008, vol. 437 pp. 161-175) and consists in seeding of rat astrocytes in a side of a polycarbonate filter (transwell) and bovine brain endothelial cells on the other side of the filter. Under these conditions endothelial cells are able to reach the confluence mimicking the BBB. […] Is commonly used model for permeation studies and toxicity of compounds across the BBB.
(§2) The co-culture assay was used to determine the capacity of the constructs cargo-shuttle to cross the BBB. The apparent permeability of the compounds was measured in triplicate at a concentration of 200 µ M for Examples 1, 2, 3, 5, 10, 13, 15, 16, 17 and 19 and at a concentration of 1.75 µM for Example 21. All the assays were performed with transendothelial electrical resistance values equal or higher than 100 Ω · cm^2 and were carried out in the presence of lucifer yellow to assess the integrity of the cell membrane during the test. The permeability tests were performed in Ringer-HEPES buffer at pH 7.4. The compound of interest was dissolved in the buffer to the desired concentration.
(§3) Once the endothelial cells were confluent on the filters (transwells) these were washed with Ringer-HEPES buffer. The acceptor well was filled with 800 µ L of Ringer-HEPES buffer and the donor well with 200 µL of the solution of the compound to be studied. The system was incubated at 37 °C and 5% CO2 for 2 h. After that time the content of the acceptor and donor compartments were analyzed by HPLC-UV, direct ELISA or fluorescence (depending on cargo anchored to the shuttle). […] The apparent permeability was calculated using the following equation: Papp = (dQ/dt) * (1/A) * (1/CO) (cm/s), where (dQ/dt) is the amount of compound present in the compartment acceptor function of time (nmol/s). A is the area of the filter(cm2) and CO is the initial concentration of the compound applied in the donor compartment (nmol/mL).

[2] = tested on: bovine brain endothelial cells; experiment: as above; details: bovine cell model, 2 h, 37 °C, Ringer-HEPES pH 7.4; 200 µM (Example 21: 1.75 µM)
Description: as §1, §2, §3

[3] = tested on: human endothelial cells derived from hematopoietic stem cells; experiment: Transport across the BBB, in vitro human cell assay (co-culture, transwell); type: in vitro ADME; details: human cell model, 37 °C, 25 nM Examples 22 and 23, 30 nM Example 24, 5 nM Example 25; for Transport (%) (2h): Ringer-HEPES pH 7.4, 200 µM peptides
Method: (§4) Due to the great interest to know whether the cargo-BBB shuttle conjugates would be transported across human brain endothelial cells, some of the most relevant cargoes for therapy and diagnosis were assayed in a novel human-based BBB cell model. In this case, the co-culture method used was described by Cecchelli et al. (Cecchelli et al. PloS One. 2014. vol9. pp. e99733) and consists in seeding bovine pericytes in the bottom of a 12-well plate and human endothelial cells derived from hematopoietic stem cells on a transwell filter.
(§5) The compound of interest was disolved or buffer-exhanged and diluted to the desired concentration.
(§6) Cetuximab and cetuximab conjugates were radiolabelled to be assayed in the cell model. Pierce^(R) iodination beads were used following the instructions provided by the manufacturer.
(§7) The apparent permeability was calculated using the same equation as for the bovine cell model.

[4] = Stability of the shuttles in human serum; type: in vitro ADME; details: HBSS, 37 °C, 90% human serum
Method: Regarding to the stability study in human serum of the BBB-shuttle (examples 1, 2, 3 and 5), the peptides were incubated at a concentration of 400 µM in buffer HBSS at 37 °C in the presence of 90% human serum. At a range of times, 100 µL aliquots were collected to which methanol was added in order to precipitate the serum proteins. Samples were centrifuged, filtered and analyzed by HPLC-UV and MALDI-TOF MS to determine the degree of degradation of the BBB-shuttle. […] The half life of the derivative bearing a single disulfide bond was 3 h (examples 2), whereas that of the linear version was no more than 8 min.

[5] = Transport across the BBB, in vitro human cell assay (co-culture, transwell); type: in vitro ADME; details: human cell model, 37 °C, Ringer-HEPES pH 7.4, 200 µM peptides, 25 nM Examples 22 and 23, 30 nM Example 24, 5 nM Example 25, read-out: Papp (x 10^6)
Method: as §4, §5, §6, §7

Compound | Papp at 2 h [1] | Transport (%) (2h) [2] | Transport (%) (2h) [3] | other results
CC(C)C[C@@H]1NC(=O)[C@H](C)NC(=O)[C@H]([C@@H](C)O)NC(=O)[C@H](CCC(=O)O)NC(=O)[C@@H]2CCCN2C(=O)[C@H](C)NC(=O)[C@H](CCCCN)NC(=O)[C@@H](N)CNC(=O)C[C@@H](C(N)=O)NC1=O [Example 3, H-Dap-Lys-Ala-Pro-Glu-Thr-Ala-Leu-Asp-NH2] (H-[Dap]KAPETALD-NH2; lactam 1-9) | 5.1 ± 0.6 ×10⁻⁶ cm/s | 6.0±0.7% | 10.9±1.1% | degradation in human serum ([4]; 400 µM, 24 h): No degradation
CC(C)C[C@@H]1NC(=O)[C@H](C)NC(=O)[C@H]([C@@H](C)O)NC(=O)[C@H](CCC(=O)O)NC(=O)[C@@H]2CCCN2C(=O)[C@H](C)NC(=O)[C@H](CCCCN)NC(=O)[C@@H](NC(=O)[C@@H](N)Cc2ccc(O)c(O)c2)CNC(=O)C[C@@H](C(N)=O)NC1=O [Example 18, L-Dopa-Dap-Lys-Ala-Pro-Glu-Thr-Ala-Leu-Asp-NH2] (H-[Dopa][Dap]KAPETALD-NH2; lactam 2-10) |  |  | 6.6±2.1% | Papp at 2 h [5]: 4 ± 1.3 ×10⁻⁶ cm/s
CC(C)C[C@@H]1NC(=O)[C@H](C)NC(=O)[C@H]([C@@H](C)O)NC(=O)[C@H](CCC(=O)O)NC(=O)[C@@H]2CCCN2C(=O)[C@H](C)NC(=O)[C@H](CCCCN)NC(=O)[C@@H]2CSSC[C@@H](C(=O)N[C@@H](Cc3c[nH]cn3)C(N)=O)NC(=O)[C@H](C)NC(=O)[C@H](C)NC(=O)[C@H](C)NC(=O)[C@H](CSSC[C@H](NC(=O)CNC(=O)[C@H](CC(=O)O)NC(=O)[C@H](Cc3ccccc3)NC(=O)[C@H](Cc3ccccc3)NC(=O)[C@@H]3CCCN3C(=O)[C@@H](N)CC(C)C)C(=O)N[C@@H](CC(N)=O)C(=O)N2)NC1=O [Example 19] (H-LPFFDGCNCKAPETALCAAACH-NH2; disulfide 7-17, 9-21) | 1.5 ± 0.4 ×10⁻⁶ cm/s | 1.8±0.5% |  | 
CC[C@H](C)[C@H](NC(=O)[C@H](CCC(=O)O)NC(=O)[C@@H](NC(=O)[C@H](CCC(N)=O)NC(=O)[C@H](CCCCN)NC(=O)[C@@H]1CC(=O)NC[C@H](N)C(=O)N[C@@H](CCCCN)C(=O)N[C@@H](C)C(=O)N2CCC[C@H]2C(=O)N[C@@H](CCC(=O)O)C(=O)N[C@@H]([C@@H](C)O)C(=O)N[C@@H](C)C(=O)N[C@@H](CC(C)C)C(=O)N1)[C@@H](C)CC)C(=O)N[C@@H](CCCCN)C(=O)N[C@@H](CCCCN)C(=O)N[C@@H](Cc1ccccc1)C(=O)N[C@@H](CCCCN)C(N)=O [Example 27, H-Dap-Lys-Ala-Pro-Glu-Thr-Ala-Leu-Asp-Lys-Gln-Ile-Glu-Ile-Lys-Lys-Phe-Lys-NH2] (H-[Dap]KAPETALDKQIEIKKFK-NH2; lactam 1-9) |  |  | 3.1±0.2% | Papp at 2 h [5]: 1.9 ± 0.1 ×10⁻⁶ cm/s
Gold nanoparticle-Cys-Dap-Lys-Ala-Pro-Glu-Thr-Ala-Leu-Asp-NH2 [Example 25] |  |  | 0.034% | 
H-Cys-Lys-Ala-Pro-Glu-Thr-Ala-Leu-Cys-NH2 (H-CKAPETALC-NH2; cysteine pairing not given here) [Example 2] |  | 3.1±1.0% |  | half life in human serum ([4]; 400 µM): 3 h
H-Cys-Lys-Ala-Pro-Glu-Thr-Ala-Leu-Cys-NH2 (H-CKAPETALC-NH2; cysteine pairing not given here) [Example 4] |  |  | 9.9±0.6% | Papp (x 10^6) cm/s ([3]; 2 h, Ringer-HEPES pH 7.4, 200 µM peptides): 6.1±0.4 (x 10^6) cm/s
H-KAPETAL-NH2 [Example 5, H-Lys-Ala-Pro-Glu-Thr-Ala-Leu-NH2] | 2 ± 0.6 ×10⁻⁶ cm/s | 2.3±0.8% |  | half-life at 400 µM [4]: ≤ 8 min
Quantum dot-PEG-NH-V1-Dap-Lys-Ala-Pro-Glu-Thr-Ala-Leu-Asp-NH2 [Example 24] |  |  | 0.23±0.09% | 
